Inhibition and IC50 data for 20 compounds are collected here from patent US9000159B2 (Glenmark Pharmaceuticals, S.A., priority 2009, dated 2015).

The target of this test is T1, Human TRPA1 (Homo sapiens, UniProt O75762).
T1 construct: expressed in transfected cells; host or cells: CHO cells
Kind of test: 45Calcium uptake assay: inhibition of AITC induced cellular uptake of radioactive calcium. The format is cell-based. Particulars: AITC (30 μM) induced 45Ca uptake, Human TRPA1 expressing CHO cells; for inhibition at 1 µM: 1.0 μM test compound, read-out: Percentage inhibition at 1.0 μM; for inhibition at 10 µM: 10.0 μM test compound, read-out: Percentage inhibition at 10.0 μM; for IC50: read-out: Human IC50 value (range). The source says:
The illustrative examples of the present invention are screened for TRPA1 activity according to a modified procedure described in (a) Tóth, A. et al., Life Sciences, 2003, 73, 487-498. (b) McNamara C, R. et al., Proc. Natl. Acad. Sci. U.S.A., 2007, 104, 13525-13530. The screening of the compounds can be carried out by other methods and procedures known to persons skilled in the art.
Screening for TRPA1 Antagonist Using the ^45Calcium Uptake Assay
The inhibition of TRPA1 receptor activation was measured as inhibition of allyl isothiocyanate (AITC) induced cellular uptake of radioactive calcium. Test compounds were dissolved in DMSO to prepare 10 mM stock solution and then diluted using plain medium with 0.1% BSA and 1.8 mM CaCl2 to get desired concentration. Final concentration of DMSO in the reaction was 0.5% (v/v). Human TRPA1 expressing CHO cells were grown in F-12 DMEM medium with 10% FBS, 1% penicillin-streptomycin solution, 400 μg/ml of G-418. Cells were seeded 24 h prior to the assay in 96 well plates so as to get ˜50,000 cells per well on the day of experiment. Cells were treated with test compounds for 10 min followed by addition of AITC at a final concentration of 30 μM and 5 μCi/ml ^45Ca^+2 for 3 min. Cells were washed and lysed using buffer containing 1% Triton X-100, 0.1% deoxycholate and 0.1% SDS. Radioactivity in the lysate was measured in Packard Top count after addition of liquid scintillant. Concentration response curves were plotted as a % of maximal response obtained in the absence of test antagonist. IC50 value was calculated from concentration response curve by nonlinear regression analysis using GraphPad PRISM software.

T1 sequence (O75762 whole entry): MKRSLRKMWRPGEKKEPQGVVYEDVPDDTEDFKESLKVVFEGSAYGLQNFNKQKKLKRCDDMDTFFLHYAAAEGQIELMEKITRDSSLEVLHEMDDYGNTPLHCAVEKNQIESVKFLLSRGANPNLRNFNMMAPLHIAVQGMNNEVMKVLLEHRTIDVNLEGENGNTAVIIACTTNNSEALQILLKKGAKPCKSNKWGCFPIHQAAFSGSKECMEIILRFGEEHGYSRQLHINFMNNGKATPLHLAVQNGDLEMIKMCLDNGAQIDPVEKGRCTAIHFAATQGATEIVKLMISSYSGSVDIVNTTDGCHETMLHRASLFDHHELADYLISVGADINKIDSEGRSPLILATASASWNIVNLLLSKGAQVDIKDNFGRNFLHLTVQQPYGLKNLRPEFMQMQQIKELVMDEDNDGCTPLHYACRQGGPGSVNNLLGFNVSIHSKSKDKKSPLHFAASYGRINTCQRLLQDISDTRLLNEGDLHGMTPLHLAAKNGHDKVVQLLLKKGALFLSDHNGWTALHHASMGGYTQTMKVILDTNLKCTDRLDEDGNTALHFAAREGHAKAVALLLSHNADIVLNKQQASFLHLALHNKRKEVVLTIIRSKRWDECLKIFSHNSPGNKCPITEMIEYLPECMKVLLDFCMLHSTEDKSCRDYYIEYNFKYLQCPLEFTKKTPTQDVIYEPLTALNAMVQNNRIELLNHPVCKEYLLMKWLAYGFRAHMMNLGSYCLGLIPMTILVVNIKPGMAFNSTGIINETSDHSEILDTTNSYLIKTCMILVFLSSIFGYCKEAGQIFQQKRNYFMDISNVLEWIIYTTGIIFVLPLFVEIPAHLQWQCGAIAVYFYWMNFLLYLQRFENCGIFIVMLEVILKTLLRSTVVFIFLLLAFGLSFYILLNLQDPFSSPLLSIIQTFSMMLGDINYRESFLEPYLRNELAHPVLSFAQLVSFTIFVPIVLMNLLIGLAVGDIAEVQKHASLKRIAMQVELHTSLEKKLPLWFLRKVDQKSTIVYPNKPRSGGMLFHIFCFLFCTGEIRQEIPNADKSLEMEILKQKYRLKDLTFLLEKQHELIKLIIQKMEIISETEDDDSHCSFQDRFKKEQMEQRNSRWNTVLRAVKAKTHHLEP

As a reminder, the inhibition is the drop in the measured response relative to a control, in per cent. The term IC50 denotes the midpoint of a concentration-inhibition curve. As to `Cc1cc2c(c(=O)n(C)c(=O)n2C)n1CC(=O)Nc1nc(-c2cc(Cl)c(OCC(C)(C)C)c(Cl)c2)cs1` [Example 29], the inhibition at 1 µM is 95.6%, the inhibition at 10 µM turned out to be 97.1% and the IC50 was < 50 nM.
Take `Cc1cc2c(c(=O)n(C)c(=O)n2C)n1CC(=O)Nc1nc(-c2cc(F)c(OCC(F)(F)F)c(Cl)c2)cs1` [Example 30]: the inhibition at 1 µM was determined as 93.6%, the inhibition at 10 µM was found to be 100% and the half-maximal inhibitory concentration (IC50) is < 50 nM.
As to `Cc1cc2c(c(=O)n(C)c(=O)n2C)n1CC(=O)Nc1nc(-c2ccc(OCC(C)(C)C)c(F)c2)cs1` [Example 31, N-{4-[4-(2,2-Dimethylpropoxy)-3-fluorophenyl]-1,3-thiazol-2-yl}-2-(1,3,6-trimethyl-2,4-dioxo-1,2,3,4-tetrahydro-5H-pyrrolo[3,2-d]pyrimidin-5-yl)acetamide], the inhibition at 1 µM was 87.4%, the inhibition at 10 µM turned out to be 95.3% and the IC50 lay within 50 to 100 nM.
For `Cc1cc2c(c(=O)n(C)c(=O)n2C)n1CC(=O)Nc1nc(-c2ccc(OCC(C)(C)C)c(Cl)c2)cs1` [Example 32, N-{4-[3-Chloro-4-(2,2-dimethylpropoxy)phenyl]-1,3-thiazol-2-yl}-2-(1,3,6-trimethyl-2,4-dioxo-1,2,3,4-tetrahydro-5H-pyrrolo[3,2-d]pyrimidin-5-yl)acetamide], the inhibition at 1 µM was 92.8%, the inhibition at 10 µM is 96.3% and the IC50 was < 50 nM.
`Cc1cc2c(c(=O)n(C)c(=O)n2C)n1CC(=O)Nc1cc(-c2ccc(Br)cc2)on1` [Example 33, N-[5-(4-bromophenyl)isoxazol-3-yl]-2-(1,3,6-trimethyl-2,4-dioxo-1,2,3,4-tetrahydro-5H-pyrrolo[3,2-d]pyrimidin-5-yl)acetamide]: the inhibition at 1 µM amounted to 0% and the inhibition at 10 µM worked out at 28.3%.
For `Cc1cn(CC(=O)Nc2nc(-c3cc(F)c(OCC(C)(C)C)c(F)c3)cs2)c2c(=O)n(C)c(=O)n(C)c12` [Example 34, N-{4-[3,5-Difluoro-4-(2,2-dimethylpropoxy)phenyl]-1,3-thiazol-2-yl}-2-(1,3,7-trimethyl-2,4-dioxo-1,2,3,4-tetrahydro-5H-pyrrolo[3,2-d]pyrimidin-5-yl)acetamide], the inhibition at 1 µM was 88.8%, the inhibition at 10 µM was 97% and the concentration for half-maximal inhibition (IC50) is > 100 nM.
Turning to `Cc1cn(CC(=O)Nc2nc(-c3ccc(C(F)(F)F)c(F)c3)cs2)c2c(=O)n(C)c(=O)n(C)c12` [Example 35, N-{4-[3-Fluoro-4-(trifluoromethyl)phenyl]-1,3-thiazol-2-yl}-2-(1,3,7-trimethyl-2,4-dioxo-1,2,3,4-tetrahydro-5H-pyrrolo[3,2-d]pyrimidin-5-yl)acetamide], the inhibition at 1 µM is 64.7% and the inhibition at 10 µM was 96.8%.
Take `Cn1c(=O)c2c(c(Br)cn2CC(=O)Nc2nc(-c3cc(F)c(OCC(C)(C)C)c(F)c3)cs2)n(C)c1=O` [Example 36, 2-(7-Bromo-1,3-dimethyl-2,4-dioxo-1,2,3,4-tetrahydro-5H-pyrrolo[3,2-d]pyrimidin-5-yl)-N-{4-[3,5-difluoro-4-(2,2-dimethylpropoxy)phenyl]-1,3-thiazol-2-yl}acetamide]: the inhibition at 1 µM worked out at 35.6% and the inhibition at 10 µM amounted to 70.1%.
In the same order, the values of `Cn1c(=O)c2c(c(Br)cn2CC(=O)Nc2nc(-c3ccc(C(F)(F)F)c(F)c3)cs2)n(C)c1=O` [Example 37, 2-(7-Bromo-1,3-dimethyl-2,4-dioxo-1,2,3,4-tetrahydro-5H-pyrrolo[3,2-d]pyrimidin-5-yl)-N-{4-[3-fluoro-4-(trifluoromethyl)phenyl]-1,3-thiazol-2-yl}acetamide] are 52.9% and 95.4%.
Consider `CN(C)Cc1cn(CC(=O)Nc2nc(-c3ccc(C(F)(F)F)c(F)c3)cs2)c2c(=O)n(C)c(=O)n(C)c12` [Example 38, N-{4-[3-Fluoro-4-(trifluoromethyl)phenyl]-1,3-thiazol-2-yl}-2-{7-[(dimethylamino)methyl]-1,3-dimethyl-2,4-dioxo-1,2,3,4-tetrahydro-5H-pyrrolo[3,2-d]pyrimidin-5-yl}acetamide], for which the inhibition at 1 µM was determined as 57% and the inhibition at 10 µM is 97.8%.
For `CN(C)Cc1cn(CC(=O)Nc2nc(-c3cc(F)c(OCC(C)(C)C)c(F)c3)cs2)c2c(=O)n(C)c(=O)n(C)c12` [Example 39], the inhibition at 1 µM was found to be 4.89% and the inhibition at 10 µM is 21.1%.
On to `CCN(CC)Cc1cn(CC(=O)Nc2nc(-c3ccc(C(F)(F)F)c(F)c3)cs2)c2c(=O)n(C)c(=O)n(C)c12` [Example 40, N-{4-[3-Fluoro-4-(trifluoromethyl)phenyl]-1,3-thiazol-2-yl}-2-{7-[(diethylamino)methyl]-1,3-dimethyl-2,4-dioxo-1,2,3,4-tetrahydro-5H-pyrrolo[3,2-d]pyrimidin-5-yl}acetamide], for which the inhibition at 1 µM was found to be 48.5% and the inhibition at 10 µM turned out to be 86.2%.
For the compound `Cn1c(=O)c2c(CC(=O)Nc3nc(-c4ccc(C(F)(F)F)c(F)c4)cs3)cn(C)c2n(C)c1=O` [Example 41, N-{4-[3-Fluoro-4-(trifluoromethyl)phenyl]-1,3-thiazol-2-yl}-2-(1,3,7-trimethyl-2,4-dioxo-2,3,4,7-tetrahydro-1H-pyrrolo[2,3-d]pyrimidin-5-yl)acetamide], the inhibition at 1 µM stood at 38% and the inhibition at 10 µM is 86.5%.
Turning to `Cn1c(=O)c2c(CC(=O)Nc3nc(-c4cc(F)c(OCC(C)(C)C)c(F)c4)cs3)cn(C)c2n(C)c1=O` [Example 42, N-[4-(3,5-Difluoro-4-(2,2-dimethylpropoxy)phenyl)-1,3-thiazol-2-yl]-2-(1,3,7-trimethyl-2,4-dioxo-2,3,4,7-tetrahydro-1H-pyrrolo[2,3-d]pyrimidin-5-yl)acetamide], the inhibition at 1 µM turned out to be 41.1% and the inhibition at 10 µM is 63.1%.
For `Cn1c(=O)c2c(CC(=O)Nc3nc(-c4ccc(F)c(C(F)(F)F)c4F)cs3)cn(C)c2n(C)c1=O` [Example 43, N-{4-[2,4-Difluoro-3-(trifluoromethyl)phenyl]-1,3-thiazol-2-yl}-2-(1,3,7-trimethyl-2,4-dioxo-2,3,4,7-tetrahydro-1H-pyrrolo[2,3-d]pyrimidin-5-yl)acetamide], the inhibition at 1 µM is 30.1% and the inhibition at 10 µM came to 41.6%.
As for `Cn1c(=O)c2c(CC(=O)Nc3nc(-c4cc(F)c(OCC(F)(F)F)c(F)c4)cs3)cn(C)c2n(C)c1=O` [Example 44, N-{4-[3,5-Difluoro-4-(2,2,2-trifluoroethoxy)phenyl]-1,3-thiazol-2-yl}-2-(1,3,7-trimethyl-2,4-dioxo-2,3,4,7-tetrahydro-1H-pyrrolo[2,3-d]pyrimidin-5-yl)acetamide], the inhibition at 1 µM worked out at 27.1% and the inhibition at 10 µM stood at 77%.
Take `CC(C)Cc1ccc(-c2csc(NC(=O)Cc3c4c(=O)n(C)c(=O)n(C)c4nn3C)n2)cc1` [Example 45, N-[4-(4-Isobutylphenyl)-1,3-thiazol-2-yl]-2-(2,5,7-trimethyl-4,6-dioxo-4,5,6,7-tetrahydro-2H-pyrazolo[3,4-d]pyrimidin-3-yl)acetamide]: the inhibition at 1 µM turned out to be 93.5%, the inhibition at 10 µM was determined as 98.9% and the IC50 lay within 50 to 100 nM.
Turning to `Cn1nc2c(c1CC(=O)Nc1nc(-c3ccc(Cl)cc3)cs1)c(=O)n(C)c(=O)n2C` [Example 46, N-[4-(4-Chlorophenyl)-1,3-thiazol-2-yl]-2-(2,5,7-trimethyl-4,6-dioxo-4,5,6,7-tetrahydro-2H-pyrazolo[3,4-d]pyrimidin-3-yl)acetamide], the inhibition at 1 µM is 89.3%, the inhibition at 10 µM amounted to 96.6% and the IC50 is > 100 nM.
For the compound `Cn1nc2c(c1CC(=O)Nc1nc(-c3ccc(C(F)(F)F)cc3)cs1)c(=O)n(C)c(=O)n2C` [Example 47, N-{4-[4-(Trifluoromethyl)phenyl]-1,3-thiazol-2-yl}-2-(2,5,7-trimethyl-4,6-dioxo-4,5,6,7-tetrahydro-2H-pyrazolo[3,4-d]pyrimidin-3-yl)acetamide], the inhibition at 1 µM stood at 99%, the inhibition at 10 µM came out at 99.5% and the IC50 was < 50 nM.
In the same order, the values of `Cn1nc2c(c1CC(=O)Nc1nc(-c3cccc(C(F)(F)F)c3)cs1)c(=O)n(C)c(=O)n2C` [Example 48, N-{4-[3-(Trifluoromethyl)phenyl]-1,3-thiazol-2-yl}-2-(2,5,7-trimethyl-4,6-dioxo-4,5,6,7-tetrahydro-2H-pyrazolo[3,4-d]pyrimidin-3-yl)acetamide] are 92.8%, 97.5% and 50 to 100 nM.
